From PubChem BioAssay AID624254 (Broad Institute, 2012)
Calls of active or inactive are those of the source. How the calls were made is not given here.

The compounds below were run against V. cholerae BH1651 luxOD47E, luciferase light induction, 6 h (assay: Luciferase light induction in v cholerae bh1651, agonist dose response, confirmatory (AID 624254)).
C[C@H](CO)N1C[C@H](C)[C@@H](CN(C)S(=O)(=O)c2cccs2)Oc2c(NC(=O)Nc3ccc4c(c3)OCO4)cccc2C1=O showed an AC50 of 1180 nM. In the case of CCOC(=O)c1cnc2nc(C(F)(F)F)[nH]n2c1=O, the AC50 is reported as 15700 nM. CCC(C)n1cnc2c(=O)oc3ccccc3c21 (stereo not drawn) gave an AC50 of 149 nM. In the case of C=C(C)COc1ccc(-c2ncncc2Oc2ccc(OC)cc2)c(O)c1, the AC50 is reported as 632 nM. For O=C(Nc1nnc(-c2ccc3c(c2)OCCO3)o1)C1CCCCC1, the AC50 was < 23.5 nM. With CC(=O)Nc1ccc(N2CCCC2)cc1 the AC50 was > 50000 nM (inactive). Compound COc1ccc(Cl)cc1S(=O)(=O)NC(C)C(=O)NCCCn1ccnc1 (stereo not drawn) has an AC50 of 180 nM. With CCCCn1nnnc1NCc1ccc(N2CCCC2)cc1 the AC50 was 38700 nM. CCOc1ccc(CCNC(=O)C2CCN(c3ccc(N4CCOCC4)nn3)CC2)cc1OCC gave an AC50 of 44.5 nM. O=C(c1ccc(C(=O)N2CCOCC2)nc1)N1CCOCC1 was tested, and the AC50 was 183 nM. NS(=O)(=O)c1ccc(NC(=O)NC2CCCCC2)cc1 was tested, and the AC50 was 2290 nM. In the case of CC(C)Cn1c(CN2CCN(C)C(CCO)C2)nc2ccccc21 (stereo not drawn), the AC50 is reported as > 50000 nM (inactive). For CCn1nc(NC(=O)c2ccco2)c2cc3ccccc3nc21, the AC50 was 2360 nM. Cc1ccc(Cn2c(SCC(C)C)nc3c2c(=O)[nH]c(=O)n3C)cc1 gave an AC50 of 166 nM. COc1ccc(OCCOC(=O)CCS(=O)(=O)c2ccc(C)cc2)cc1 showed an AC50 of 208 nM. O=C(O)c1cccc(Nc2ncnc3c2cnn3-c2ccccc2)c1 was tested, and the AC50 was > 50000 nM (inactive). O=C(Cn1cccc1C(=O)c1ccccc1)NCCN1CCCCCC1 showed an AC50 of 25600 nM. Compound CCC(=O)N(CC)c1nc(-c2cc(OC)ccc2OC)cs1 has an AC50 of 162 nM. CCOC(=O)CSc1nc(N)c(C#N)c(-c2cccs2)c1C#N showed an AC50 of 11700 nM. O=C(NCc1ccccn1)C(C(=O)c1ccc(F)cc1)n1ccccc1=O (stereo not drawn) showed an AC50 of 49.3 nM. In the case of CC(C)c1ccc(CNc2nnnn2C)cc1, the AC50 is reported as 101 nM. C[C@H](CO)N1C[C@H](C)[C@@H](CN(C)S(=O)(=O)c2ccccc2)Oc2c(NC(=O)Nc3ccc(F)cc3)cccc2C1=O showed an AC50 of 1910 nM. For O=C(NC1CCCCC1)C(=O)c1c[nH]c2ccccc12, the AC50 was < 23.5 nM. O=C(NCCC(=O)N1CCCCC1)c1ccc(Br)cc1 was tested, and the AC50 was 25000 nM. With CN(CC(=O)Nc1c(Cl)cccc1Cl)C(=O)c1n[nH]c2ccccc12 the AC50 was 38800 nM. COc1cc(NC(=O)C2=C(C)OCCS2)c(Cl)cc1C(=O)NCCN(C)C gave an AC50 of 463 nM. In the case of COc1ccc(OC)c(S(=O)(=O)N2CCC(C(=O)N3CCc4ccccc4C3)CC2)c1, the AC50 is reported as 191 nM. O=C(COC(=O)/C=C/c1ccccc1)NC1CCCC1 was tested, and the AC50 was > 50000 nM (inactive). Compound Cc1ccc(C)c(S(=O)(=O)N2CCN(C(=O)c3n[nH]c(=O)c4ccccc34)CC2)c1 has an AC50 of 2960 nM. In the case of COc1ccc(C)c2sc(N3CCCC3)nc12, the AC50 is reported as 1520 nM. Cn1c(Cn2cnc(Cl)c2Cl)nc2ccccc21 showed an AC50 of 210 nM. In the case of CC(=O)c1cccc(NC(=O)CSc2nc(=O)n(CCCN3CCOCC3)c3c2CCC3)c1, the AC50 is reported as 180 nM. COc1ccc(NC(=O)CCS(=O)(=O)c2ccc3c(c2)CCCN3C(C)=O)cc1Cl showed an AC50 of 113 nM. Work on Cc1ccc2onc(CC(=O)O)c2c1 yielded an AC50 of 8360 nM. Compound O=C(Nc1nnc(C(F)(F)F)s1)C1COc2ccccc2O1 (stereo not drawn) has an AC50 of 13700 nM. For CC(C)(C)Cc1nc(-c2ccccn2)no1, the AC50 was > 50000 nM (inactive). In the case of C[C@H](CO)N1C[C@H](C)[C@@H](CN(C)S(=O)(=O)c2ccccc2)Oc2c(NC(=O)Nc3ccc4c(c3)OCO4)cccc2C1=O, the AC50 is reported as 1800 nM. Compound COc1ccc(N2CC(C(=O)Nc3cc(C(F)(F)F)ccc3N3CCCC3)CC2=O)c(OC)c1 (stereo not drawn) has an AC50 of 1220 nM. With Cc1cc(C)cc(NC(=O)Cn2ncn3c(cc4ccccc43)c2=O)c1 the AC50 was 7050 nM. O=C(CSc1nnc2ccccn12)c1ccc2c(c1)OCCO2 gave an AC50 of 17000 nM. Work on O=c1cc(CSc2ccccn2)c2ccccc2[nH]1 yielded an AC50 of 615 nM. For Cc1ccc2nc(NCCc3ccccc3)c3nncn3c2c1, the AC50 was 68.1 nM. Compound CCOC(=O)c1cnc(-n2nc(C)cc2C)nc1N(C)C has an AC50 of 67.6 nM. Compound Cc1ccc(N2C(=O)C(CN(C)C)C2c2ccccc2)cc1 (stereo not drawn) has an AC50 of 417 nM. Cc1ccc(C(=O)OCC(=O)NCC(F)(F)F)cc1C gave an AC50 of 2410 nM. O=C(CNC(=O)c1cccc(S(=O)(=O)N2CCc3ccccc32)c1)Nc1ccc(F)c(F)c1F was tested, and the AC50 was 516 nM. In the case of Cc1noc(C)c1NC(=O)Nc1cccc2c1O[C@@H](CN(C)S(=O)(=O)c1cccs1)[C@H](C)CN([C@H](C)CO)C2=O, the AC50 is reported as 11200 nM. O=C(CCN1C(=O)c2ccccc2C1=O)N1CCN(C2c3ccccc3-c3ccccc32)CC1 gave an AC50 of 209 nM. Work on C=CCn1c(NCc2ccccc2)nc2ccccc21 yielded an AC50 of 11700 nM. Compound COc1ccccc1NC(=O)c1nn(-c2ccc(Cl)cc2)ccc1=O has an AC50 of 377 nM. In the case of COc1ccc(S(=O)(=O)N2CCN(c3cnccn3)CC2)cc1, the AC50 is reported as 2580 nM. COc1cc(NC(=O)Nc2cccc(Cl)c2)c(OC)cc1NC(=O)CN1CCCCC1 gave an AC50 of 522 nM. CCOCCCN1CC(C(=O)NCCc2ccc(C)cc2)CC1=O (stereo not drawn) showed an AC50 of 185 nM. In the case of COc1cccc(OCC(=O)NC2CCCCC2)c1, the AC50 is reported as 2430 nM. Work on CC(C)n1nnnc1SCC(=O)c1ccc2c(c1)OCCO2 yielded an AC50 of 845 nM. C[C@H](CO)N1C[C@H](C)[C@@H](CN(C)S(=O)(=O)c2ccccc2)Oc2c(NC(=O)Nc3ccccc3)cccc2C1=O gave an AC50 of 6480 nM. In the case of CC(NC(=O)CN1CCN(c2ccccc2F)CC1)c1ccccc1 (stereo not drawn), the AC50 is reported as > 50000 nM (inactive). In the case of CCc1cc(C(=O)c2ccccc2OC)c(N)s1, the AC50 is reported as 802 nM. COc1ccc(OCCOC(=O)c2cccs2)cc1 was tested, and the AC50 was 40300 nM. For COc1ccc(CNC(=O)c2cc(-n3cnnc3)ccc2Cl)cc1, the AC50 was 4230 nM. Compound O=C(c1cc2cc(Cl)ccc2oc1=O)N1CCOCC1 has an AC50 of 67.8 nM. With CCCOc1ccc(-c2nc(OC)c3ccccc3n2)cc1 the AC50 was 7010 nM. With CC(=O)Oc1ccc(-c2ccc(C(=O)O)cc2)cc1 the AC50 was > 50000 nM (inactive). CCOc1ccc(CNC(=O)c2ccco2)cc1 was tested, and the AC50 was 35600 nM. Work on CCn1cc(C(=O)NC2CCCCC2C)c(=O)c2ccc(C)nc21 (stereo not drawn) yielded an AC50 of 1080 nM. With CCCS(=O)(=O)N1CCC(C(=O)N2CCN(C(=O)OCC)CC2)CC1 the AC50 was > 50000 nM (inactive). Work on CCC(CC)c1nnc(NC(=O)COc2ccc3c(C)cc(=O)oc3c2)s1 yielded an AC50 of 99.8 nM. With CCCCCc1c(C)nc(N2CCc3ccccc3C2)[nH]c1=O the AC50 was 295 nM. In the case of Cc1sc(N)nc1-c1ccc(Oc2ccccc2)cc1, the AC50 is reported as 167 nM. Cc1cc2oc(=O)cc(-c3ccccc3)c2c(C)c1-c1ccc(C#N)cc1 was tested, and the AC50 was 3210 nM. CCCS(=O)(=O)N1CCCC(C(=O)N2CCN(c3ccccc3)CC2)C1 (stereo not drawn) was tested, and the AC50 was 41.3 nM. Compound Cc1cc(=O)[nH]c(CN2CCC(c3ccccc3)CC2)n1 has an AC50 of 296 nM. In the case of O=[N+]([O-])c1ccc(N(CCO)CCO)c2c1no[n+]2[O-], the AC50 is reported as 1200 nM. With C=Cn1c(C(=O)O)ccc1-c1ccc(OC)cc1 the AC50 was < 380 nM. For CC(=O)N1CCN(C(=O)COc2ccc(Br)cc2)CC1, the AC50 was > 50000 nM (inactive). Cc1cccc(-c2cc3nc4c(c(N5CCC6(CC5)OCCO6)n3n2)CCCC4)c1 was tested, and the AC50 was > 50000 nM (inactive). With Cc1cc(Oc2ccc(C#N)cc2)nc(N2CCOCC2)n1 the AC50 was 208 nM. In the case of CC1CCCCC1NC(=O)COC(=O)c1ccccc1NC(=O)c1ccco1 (stereo not drawn), the AC50 is reported as 20000 nM. Compound C[C@H]1CN([C@@H](C)CO)C(=O)c2cccc(NC(=O)Nc3ccc4c(c3)OCO4)c2O[C@@H]1CN(C)S(=O)(=O)c1ccccc1 has an AC50 of 2250 nM. Cc1noc(C)c1C(=O)OCC(=O)c1c[nH]c2ccccc12 was tested, and the AC50 was > 50000 nM (inactive). Compound CCn1nnnc1NCc1ccc(SC)cc1 has an AC50 of 188 nM. For Cn1c(C(=O)NC2CCCCC2)cc2c(=O)n(C)c3ccccc3c21, the AC50 was 27.3 nM. Compound CCOc1ccc(CCNC(=O)COC(=O)Cc2ccc(F)cc2)cc1OCC has an AC50 of 95.3 nM. With CCc1ccc(NS(=O)(=O)c2cccs2)cc1 the AC50 was 212 nM. Cc1nc2ncnn2c(C)c1Cc1c(Cl)cccc1Cl gave an AC50 of 1220 nM. CCOC(=O)C1=C(C)N=C2SCCC(=O)N2C1c1cc(Br)ccc1OC (stereo not drawn) gave an AC50 of 35.4 nM. Compound CCC(NC(=O)Nc1nccs1)(C(F)(F)F)C(F)(F)F has an AC50 of 734 nM. COc1ccc(Cl)cc1NC(=O)COC(=O)c1ccc(Br)o1 gave an AC50 of 8880 nM. With CC(C)COC(=O)CNc1n[nH]c(=S)[nH]c1=O the AC50 was < 23.5 nM. Work on Cc1ccc(-n2nnnc2SCC(=O)NCC2CCCO2)cc1C (stereo not drawn) yielded an AC50 of 33.6 nM. For Cc1cccc(NC(=O)c2c(O)c3ccccc3n(C)c2=O)c1, the AC50 was > 50000 nM (inactive). In the case of Cc1ccc(C)c(-n2c(Cc3cccs3)n[nH]c2=S)c1, the AC50 is reported as < 23.5 nM. CN(C(=O)Cn1cc(C(F)(F)F)cc(Cl)c1=O)C1CCS(=O)(=O)C1 (stereo not drawn) was tested, and the AC50 was 1230 nM. O=C(NCc1ccco1)C1CCCN1S(=O)(=O)c1ccc2ccccc2c1 (stereo not drawn) was tested, and the AC50 was > 50000 nM (inactive). COc1ccc(N2CCN(C(=O)COc3ccc4ccccc4c3)CC2)cc1 was tested, and the AC50 was 35100 nM. In the case of CSc1nc(C)cc(OCC(=O)N2CCOCC2)n1, the AC50 is reported as 113 nM. Compound COc1ccc(NC(=O)Nc2cccc3c2O[C@H](CN(C)S(=O)(=O)c2ccccc2)[C@@H](C)CN([C@H](C)CO)C3=O)cc1 has an AC50 of 13200 nM. With O=C(NCc1ccccn1)c1ccc(CS(=O)(=O)Cc2ccc(Cl)cc2)o1 the AC50 was 20500 nM. CC(C)C(NC(=O)c1ccc(S(=O)(=O)N2CCOCC2)cc1)c1nc2ccccc2[nH]1 (stereo not drawn) gave an AC50 of 15300 nM. For CCC(Oc1ccccc1)C(=O)Nc1ccc(-c2nnc(-c3ccco3)o2)cc1 (stereo not drawn), the AC50 was > 50000 nM (inactive). For CSc1ccc(C#N)cc1NC(=O)c1ccc(Cl)cc1Cl, the AC50 was > 50000 nM (inactive). COc1ccc(CNc2nnnn2C)cc1 showed an AC50 of 3510 nM. COc1ccc(-c2noc(CCC(=O)N3CCN(c4cccc(C(F)(F)F)c4)CC3)n2)cc1 gave an AC50 of 685 nM.
